Measured values reported in ChEMBL document CHEMBL1156647, “Evolving trends in the dereplication of natural product extracts. 2. The isolation of chrysaibol, an antibiotic peptaibol from a New Zealand sample of the mycoparasitic fungus Sepedonium chrysospermum” (J Nat Prod, 2008).
The source made the active and inactive calls. The calls are words filed in the database; no cut-off is given here. Residues, ends and D or L forms follow the SMILES beside them.

Assays:
Candida albicans = test: Antimicrobial activity against Candida albicans; assay type: functional, organism-based
Bacillus subtilis = test: Antimicrobial activity against Bacillus subtilis; assay type: functional, organism-based
P388 = test: Cytotoxicity against mouse P388 cells; assay type: functional, cell-based

- IC50 (Bacillus subtilis): 1.54 µM
SMILES: CC(=O)N[C@@H](Cc1c[nH]c2ccccc12)C(=O)NC(C)(C)C(=O)NC(C)(C)C(=O)N[C@@H](CC(C)C)C(=O)N[C@H](C(=O)N[C@@H](CCC(N)=O)C(=O)NC(C)(C)C(=O)NC(C)(C)C(=O)NC(C)(C)C(=O)N[C@@H](CCC(N)=O)C(=O)N[C@@H](CC(C)C)C(=O)NC(C)(C)C(=O)N1CCC[C@H]1C(=O)N[C@@H](CCC(N)=O)C(=O)N[C@@H](C)CO)C(C)C [CHRYSAIBOL] (HELM PEPTIDE1{[ac].W.[Aib].[Aib].L.V.Q.[Aib].[Aib].[Aib].Q.L.[Aib].P.Q.[C[C@@H](CO)N[*:1]]}$$$$V2.0)
- Activity (Candida albicans): inactive
- IC50 (P388): 6.61 µM
